Measured values: the supplement of paper PMC8612539
Values after ≈ are worked out from the molar mass of the structure shown.

Legend:
[1] = system: Mannheimia haemolytica; assay: minimum inhibitory concentration (MIC)
Procedure: (§1)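 Broth microdilution MIC (Sensititre BOPO7F bovine plate, CLSI methods) of 19 antimicrobials against field isolates of P. multocida, M. haemolytica, H. somni (deep nasopharyngeal swabs) and E. coli, Enterococcus spp. (rectal swabs) from weaned dairy heifers. Incubation 16-24 h at 35 C. MIC is the lowest concentration preventing visible growth. Values with <= or > lie at the tested range limits. Trimethoprim-sulfamethoxazole is given as the trimethoprim component of a 1:19 mixture.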

[2] = system: Enterococcus spp.; assay: minimum inhibitory concentration (MIC)
Procedure: as §1

CC1(C)S[C@@H]2[C@H](NC(=O)Cc3ccccc3)C(=O)N2[C@H]1C(=O)O [Penicillin]
minimum inhibitory concentration [µg/mL]
Details | [1] | [2]
isolate (source animal id): 2 | – | ≤ 0.12
isolate (source animal id): 8 | 0.25 (≈ 0.748 µM) | –
isolate (source animal id): 13 | 0.25 (≈ 0.748 µM) | –
isolate (source animal id): 18 | ≤ 0.12 | –
isolate (source animal id): 21 | 0.25 (≈ 0.748 µM) | –
isolate (source animal id): 25 | 0.25 (≈ 0.748 µM) | –
isolate (source animal id): 27 | 0.25 (≈ 0.748 µM) | –
isolate (source animal id): 28 | > 8 | –
isolate (source animal id): 30 | ≤ 0.12 | –
isolate (source animal id): 31 | > 8 | –
isolate (source animal id): 32 | ≤ 0.12 | –
isolate (source animal id): 34 | ≤ 0.12 | –
isolate (source animal id): 35 | – | 2 (≈ 5.98 µM)
isolate (source animal id): 36 | ≤ 0.12 | –
isolate (source animal id): 37 | ≤ 0.12 | –
isolate (source animal id): 40 | ≤ 0.12 | –
isolate (source animal id): 41 | ≤ 0.12 | –
isolate (source animal id): 42 | – | 2 (≈ 5.98 µM)
isolate (source animal id): 43 | 0.25 (≈ 0.748 µM) | –
isolate (source animal id): 44 | – | 2 (≈ 5.98 µM)
isolate (source animal id): 46 | ≤ 0.12 | –
isolate (source animal id): 49 | ≤ 0.12 | –
isolate (source animal id): 50 | > 8 | –
isolate (source animal id): 51 | 0.25 (≈ 0.748 µM) | –
isolate (source animal id): 52 | ≤ 0.12 | –
isolate (source animal id): 53 | ≤ 0.12 | –
isolate (source animal id): 55 | ≤ 0.12 | –
isolate (source animal id): 56 | ≤ 0.12 | –
isolate (source animal id): 57 | 0.25 (≈ 0.748 µM) | –
isolate (source animal id): 79 | – | 2 (≈ 5.98 µM)
isolate (source animal id): 88 | – | ≤ 0.12
isolate (source animal id): 91 | – | ≤ 0.12
isolate (source animal id): 92 | – | 0.5 (≈ 1.5 µM)
isolate (source animal id): 100 | ≤ 0.12 | –
isolate (source animal id): 103 | ≤ 0.12 | –
isolate (source animal id): 107 | ≤ 0.12 | –
isolate (source animal id): 108 | ≤ 0.12 | –
isolate (source animal id): 111 | – | ≤ 0.12
isolate (source animal id): 112 | 0.25 (≈ 0.748 µM) | –
isolate (source animal id): 113 | 0.5 (≈ 1.5 µM) | –
isolate (source animal id): 121 | > 8 | –
isolate (source animal id): 122 | 0.25 (≈ 0.748 µM) | 2 (≈ 5.98 µM)
isolate (source animal id): 123 | 1 (≈ 2.99 µM) | 1 (≈ 2.99 µM)
isolate (source animal id): 126 | > 8 | –
isolate (source animal id): 133 | 0.5 (≈ 1.5 µM) | 1 (≈ 2.99 µM)
isolate (source animal id): 135 | 0.25 (≈ 0.748 µM) | –
isolate (source animal id): 138 | > 8 | –
isolate (source animal id): 141 | ≤ 0.12 | –
isolate (source animal id): 142 | 0.25 (≈ 0.748 µM) | –
isolate (source animal id): 145 | 0.25 (≈ 0.748 µM) | –
isolate (source animal id): 149 | ≤ 0.12 | –
isolate (source animal id): 151 | 0.25 (≈ 0.748 µM) | –
isolate (source animal id): 152 | ≤ 0.12 | –
isolate (source animal id): 154 | 0.5 (≈ 1.5 µM) | –
isolate (source animal id): 158 | – | 2 (≈ 5.98 µM)
isolate (source animal id): 159 | > 8 | –
isolate (source animal id): 162 | > 8 | –
isolate (source animal id): 168 | – | 4 (≈ 12 µM)
isolate (source animal id): 169 | – | 4 (≈ 12 µM)
isolate (source animal id): 170 | > 8 | –
isolate (source animal id): 171 | 0.5 (≈ 1.5 µM) | 1 (≈ 2.99 µM)
isolate (source animal id): 172 | > 8 | –
isolate (source animal id): 173 | > 8 | –
isolate (source animal id): 175 | – | 4 (≈ 12 µM)
isolate (source animal id): 177 | – | 2 (≈ 5.98 µM)
isolate (source animal id): 179 | > 8 | –
isolate (source animal id): 180 | > 8 | –
isolate (source animal id): 181 | – | 4 (≈ 12 µM)
isolate (source animal id): 182 | – | 4 (≈ 12 µM)
isolate (source animal id): 183 | > 8 | 2 (≈ 5.98 µM)
isolate (source animal id): 186 | > 8 | –
isolate (source animal id): 187 | > 8 | 4 (≈ 12 µM)
isolate (source animal id): 188 | > 8 | –
isolate (source animal id): 190 | 0.5 (≈ 1.5 µM) | 4 (≈ 12 µM)
isolate (source animal id): 191 | > 8 | –
isolate (source animal id): 192 | 0.25 (≈ 0.748 µM) | –
isolate (source animal id): 194 | – | 1 (≈ 2.99 µM)
isolate (source animal id): 195 | – | 4 (≈ 12 µM)
isolate (source animal id): 197 | – | 0.5 (≈ 1.5 µM)
isolate (source animal id): 201 | > 8 | –
isolate (source animal id): 202 | > 8 | –
isolate (source animal id): 209 | > 8 | –
isolate (source animal id): 211 | > 8 | 4 (≈ 12 µM)
isolate (source animal id): 214 | – | 2 (≈ 5.98 µM)
isolate (source animal id): 220 | > 8 | –
isolate (source animal id): 221 | > 8 | –
isolate (source animal id): 222 | – | 1 (≈ 2.99 µM)
isolate (source animal id): 223 | > 8 | 1 (≈ 2.99 µM)
isolate (source animal id): 228 | – | 2 (≈ 5.98 µM)
isolate (source animal id): 230 | – | 8 (≈ 23.9 µM)
isolate (source animal id): 233 | > 8 | –
isolate (source animal id): 235 | – | 2 (≈ 5.98 µM)
isolate (source animal id): 236 | – | 2 (≈ 5.98 µM)
isolate (source animal id): 237 | 0.25 (≈ 0.748 µM) | –
isolate (source animal id): 239 | – | 1 (≈ 2.99 µM)
isolate (source animal id): 241 | > 8 | 4 (≈ 12 µM)
isolate (source animal id): 244 | – | 1 (≈ 2.99 µM)
isolate (source animal id): 246 | – | 1 (≈ 2.99 µM)
isolate (source animal id): 247 | – | 8 (≈ 23.9 µM)
isolate (source animal id): 250 | – | 1 (≈ 2.99 µM)
isolate (source animal id): 252 | 0.25 (≈ 0.748 µM) | 2 (≈ 5.98 µM)
isolate (source animal id): 253 | 0.25 (≈ 0.748 µM) | –
isolate (source animal id): 259 | > 8 | –
isolate (source animal id): 260 | ≤ 0.12 | –
isolate (source animal id): 262 | > 8 | –
isolate (source animal id): 268 | – | ≤ 0.12
isolate (source animal id): 282 | > 8 | 2 (≈ 5.98 µM)
isolate (source animal id): 285 | – | 2 (≈ 5.98 µM)
isolate (source animal id): 287 | 0.25 (≈ 0.748 µM) | –
isolate (source animal id): 288 | 0.5 (≈ 1.5 µM) | –
isolate (source animal id): 289 | – | 0.5 (≈ 1.5 µM)
isolate (source animal id): 290 | – | 0.25 (≈ 0.748 µM)
isolate (source animal id): 291 | ≤ 0.12 | –
isolate (source animal id): 293 | 0.25 (≈ 0.748 µM) | –
isolate (source animal id): 296 | – | 0.5 (≈ 1.5 µM)
isolate (source animal id): 298 | ≤ 0.12 | ≤ 0.12
isolate (source animal id): 299 | 0.25 (≈ 0.748 µM) | –
isolate (source animal id): 300 | ≤ 0.12 | –
isolate (source animal id): 301 | – | ≤ 0.12
isolate (source animal id): 302 | ≤ 0.12 | –
isolate (source animal id): 304 | ≤ 0.12 | –
isolate (source animal id): 306 | ≤ 0.12 | –
isolate (source animal id): 308 | ≤ 0.12 | –
isolate (source animal id): 309 | ≤ 0.12 | –
isolate (source animal id): 310 | – | 4 (≈ 12 µM)
isolate (source animal id): 313 | 0.25 (≈ 0.748 µM) | –
isolate (source animal id): 318 | ≤ 0.12 | –
isolate (source animal id): 320 | ≤ 0.12 | 0.5 (≈ 1.5 µM)
isolate (source animal id): 321 | ≤ 0.12 | –
isolate (source animal id): 323 | 0.25 (≈ 0.748 µM) | –
isolate (source animal id): 324 | ≤ 0.12 | –
isolate (source animal id): 326 | ≤ 0.12 | –
isolate (source animal id): 328 | 0.25 (≈ 0.748 µM) | –
isolate (source animal id): 329 | 0.25 (≈ 0.748 µM) | –
isolate (source animal id): 331 | – | ≤ 0.12
isolate (source animal id): 333 | ≤ 0.12 | 0.25 (≈ 0.748 µM)
isolate (source animal id): 335 | 0.5 (≈ 1.5 µM) | –
isolate (source animal id): 338 | 0.25 (≈ 0.748 µM) | –
isolate (source animal id): 341 | – | 2 (≈ 5.98 µM)
